{"source": "patent US9328163B2", "about": "“Post-translationally modified neurotrophin antibodies” (INSTITUT PASTEUR, priority 2006, dated 2016)", "molecules": {"B1": {"name": "NGF-ROA: control NGF treated with decomposed peroxynitrite (reverse order addition) (protein, UniProt P01139 122-241, looked up)", "Beta-nerve growth factor": "SSTHPVFHMGEFSVCDSVSVWVGDKTTATDIKGKEVTVLAEVNINNSVFRQYFFETKCRASNPVESGCRGIDSKHWNSYCTTTHTFVKALTTDEKQAAWRFIRIDTACVCVLSRKATRRG", "modifications": "Beta-nerve growth factor treated with decomposed peroxynitrite"}, "B2": {"name": "TNM-treated NGF: NGF (Harlan) treated with 40-fold molar excess of tetranitromethane; nitrated at Tyr52 and Tyr79 (protein)", "chain": "SSTHPVFHMGEFSVCDSVSVWVGDKTTATDIKGKEVTVLAEVNINNSVFRQYFFETKCRASNPVESGCRGIDSKHWNSYCTTTHTFVKALTTDEKQAAWRFIRIDTACVCVLSRKATR"}, "B3": {"name": "NGF: nerve growth factor, commercially available murine NGF (Harlan), non-nitrated (protein, listed as Mus musculus)", "chain": "B2 chain"}}, "key": {"motor neurons": {"test_system": "motor neurons", "experiment": "Purified motor neuron cultures, motor neuron survival by direct counting", "type": "cell-based, rat", "conditions": "for induction of motor neuron death: BSA 100 ng/mL, FGF-1 or FGF-2 10 ng/mL previously treated with peroxynitrite 1 mM", "experimental": "Media and sera were purchased from Gibco-Invitrogen. Motor neuron cultures were prepared from embryonic day 15 (E15) rat spinal cord by a combination of metrizamide gradient centrifugation and immunopanning with a monoclonal antibody directed against rat p 75^NTR (mouse mAb Ig192) as previously described. Motor neurons were plated at a density of 350 cells/cm^2 on 4 well multidishes (Nunclon) precoated with polyornithine-laminin. Cultures were maintained in Neurobasal™ medium supplemented with 2% horse serum, […] L-glutamate, 25 μM 2-mercaptoethanol, 0.5 mM L-glutamine, and 2% B-27 supplement (Gibco-Invitrogen). Motor neuron survival was maintained by the addition of GDNF (1 ng/mL; Sigma) to the culture media. Motor neuron death induced by trophic factor deprivation (NONE, without GDNF) was determined in all experiments as a control, and never was greater than 50%. Treatments with the different reagents were performed 3 hours after motor neuron plating. Motor neuron survival was assessed after 48 hours by direct counting of all cells displaying intact neurites longer than 4-cell bodies in diameter, in a prefixed area of the dish.\n(§1) Treatment with antisense oligonucleotides to down-regulate p75^NTR expression was performed as described previously. Briefly, HPLC-purified phosphorothioate antisense and missense oligonucleotides (5 μM; Integrated DNA Technologies) were added to the cell suspension of purified motor neurons and repeatedly pipetted before seeding. The oligonucleotides were present the whole time of culture. To determine the efficiency of uptake, cultures were incubated with p75^NTR antisense oligonucleotides with a 5′ 56-FAM fluorescent label. Cells were transferred to the heated stage (37° C.) of a Zeiss LSM510 confocal microscope with constant 5% CO2. Fluorescence was imaged with a 63× oil immersion objective. Uptake efficiency was >96% in all experiments. Sequences used were: p75^NTR antisense, 5′-ACCTGCCCTCCTCATTGCA-3′ (SEQ ID NO: 5) and p 75^NTR missense, 5′-CTCCCACTCGTCATTCGAC-3′ (SEQ ID NO: 6)."}, "purified motor neurons": {"test_system": "purified motor neurons", "experiment": "Uptake of fluorescently labelled antisense oligonucleotides (confocal microscopy)", "type": "cell-based, rat", "conditions": "antisense oligonucleotides with 5′ 56-FAM fluorescent label; all experiments", "experimental": "as §1"}, "[1]": {"test_system": "Dorsal root ganglia explants", "experiment": "Neurite outgrowth from dorsal root ganglia explants (GAP-43 immunofluorescence)", "type": "cell-based", "conditions": "100 ng/mL; 24 hours; E15 rat embryo ganglia", "experimental": "Dorsal root ganglia explants from E15 rat embryos (that express both TrkA and p75^NTR) were cultured in Neurobasal media in the absence of trophic factors (NONE) or in the presence of NGF (100 ng/mL), NGF treated with peroxynitrite (100 ng/mL; nitroNGF-P) or NGF treated with tetranitromethane (nitroNGF-TNM). After 24 hours cultures were fixed with 4% paraformaldehyde and processed for immunofluorescence against GAP-43."}, "NGF": {"test_system": "NGF", "experiment": "Tyrosine nitration and oligomerization of NGF by peroxynitrite (SDS-PAGE, Western blot anti-nitrotyrosine)", "type": "biochemical, mouse", "conditions": "urate 20 to 1000 μM; peroxynitrite 1 mM", "experimental": "Peroxynitrite concentration was determined spectrophotometrically at 302 nm (ε=1,670 M^−1 cm^−1). Diluted stock solutions were freshly prepared in 0.01 M NaOH. The reactions of NGF (Harlan; Indianapolis, USA) with different concentrations of peroxynitrite (0.25 mM to 2 mM) was performed at a protein concentration of 0.2 mg/mL to 1.0 mg/mL obtaining similar results. The reaction was performed in 50 mM sodium phosphate buffer, pH 7.4, containing 20 mM sodium bicarbonate. NGF was subjected to 10 bolus addition of peroxynitrite (1 μL each) to reach the desired final concentration of peroxynitrite. One bolus of peroxynitrite stock solution was rapidly added on the top of the test tube and mixed by vortexing for 3 sec. The procedure was repeated 10 times. To exclude a potential non-specific effect of peroxynitrite treatment because of pH changes or contaminants, control experiments were performed using diluted NaOH or decomposed peroxynitrite (reverse order addition, ROA). Treatment of bovine serum albumin (Sigma), FGF-1 (Sigma) and FGF-2 (R&D Systems) with peroxynitrite was performed as described above at a concentration of 0.2 mg/mL.\nSDS-PAGE was performed in 15% polyacrylamide minigels under reducing conditions. Samples were boiled for 5 min in LaemLi buffer before running. Proteins were visualized by Coomassie Blue or Silver staining. […]"}, "[2]": {"conditions": "cultures maintained with GDNF (1 ng/mL), no exogenous nitric oxide, 48 h"}}}
{"molecule": "antisense: phosphorothioate p75^NTR antisense, 5′-ACCTGCCCTCCTCATTGCA-3′ (SEQ ID NO: 5) (DNA, all phosphorothioate, methylation of C not given here; further chemistry not fully specified)", "values": [{"measurement": "effect on motor neuron apoptosis induced by native NGF in the presence of nitric oxide", "setting": "motor neurons; oligonucleotides 5 μM, NGF 100 ng/mL plus DETA-NONOate 10 μM, 48 h", "value": "blocked"}, {"measurement": "effect on apoptosis induced by peroxynitrite-treated NGF", "setting": "motor neurons; oligonucleotides 5 μM, NGF-ONOO^− 100 ng/mL, 48 h", "value": "completely prevented"}, {"measurement": "effect on loss of motor neurons induced by NGF-ONOO^− or NGF+NO", "setting": "motor neurons; oligonucleotides added at plating, NGF-ONOO^− 100 ng/mL or NGF 100 ng/mL plus DETA-NONOate 10 μM, 48 h", "value": "completely blocked the loss of motor neurons"}, {"measurement": "uptake efficiency", "setting": "purified motor neurons", "value": "> 96", "unit": "%"}]}
{"molecule": "peroxynitrite treated-BSA: bovine serum albumin (Sigma) treated with peroxynitrite", "values": [{"measurement": "induction of motor neuron death", "setting": "motor neurons; 48 h", "value": "did not induce motor neuron death"}]}
{"molecule": "peroxynitrite treated-FGF-2: FGF-2 (R&D Systems) treated with peroxynitrite", "values": [{"measurement": "induction of motor neuron death", "setting": "motor neurons; 48 h", "value": "did not induce motor neuron death"}, {"measurement": "induction of motor neuron death", "setting": "motor neurons; 48 h, listed as nitro-FGF-2", "value": "do not exert any apoptotic effect"}]}
{"molecule": "O=C(O)c1ccc(/C2=C3\\C=CC(=N3)/C(c3ccc(C(=O)O)cc3)=c3/cc/c4[n]3[Mn]([Cl])[n]3c2ccc3/C(c2ccc(C(=O)O)cc2)=C2/C=CC(=N2)\\C=4c2ccc(C(=O)O)cc2)cc1", "note": "[MnTBAP]", "values": [{"measurement": "effect on motor neuron loss induced by peroxynitrite-treated NGF", "setting": "motor neurons; MnTBAP 100 μM, NGF-ONOO^− 100 ng/mL, 48 h", "value": "prevented"}]}
{"molecule": "peroxynitrite-treated NGF: NGF (Harlan) treated with peroxynitrite; nitrated (Tyr52, Trp99), elutes as dimer, tetramer and octamer", "values": [{"measurement": "peroxynitrite concentration at which NGF apoptotic activity reaches a plateau", "setting": "motor neurons; NGF 10 ng/mL previously treated with indicated peroxynitrite concentrations, 48 h", "value": "higher than 0.5 mM"}, {"measurement": "motor neuron loss", "setting": "motor neurons; at 1 pg/mL in the presence of nitric oxide (DETA-NONOate 10 μM), 48 h", "value": 33, "unit": "%"}, {"measurement": "concentration inducing motor neuron death (as low as)", "setting": "motor neurons; cultures maintained with GDNF (1 ng/mL), no exogenous nitric oxide, survival 48 h after treatment", "value": 1, "unit": "ng/mL"}, {"measurement": "increase of potency to induce apoptosis of motor neurons", "setting": "motor neurons; in the presence of nitric oxide, versus NGF", "value": "10,000 fold"}, {"measurement": "apoptotic activity relative to unmodified native NGF", "setting": "motor neurons; through p75^NTR", "value": "10,000 fold"}, {"measurement": "concentration significantly inducing motor neuron loss", "setting": "motor neurons; together with nitric oxide (NGF-ONOO^−+NO)", "value": 1, "unit": "pg/mL"}, {"measurement": "neurite growth compared to NGF", "setting": "[1]", "value": "increased neurite growth"}]}
{"molecule": "peroxynitrite treated-FGF-1: FGF-1 (Sigma) treated with peroxynitrite", "values": [{"measurement": "induction of motor neuron death", "setting": "motor neurons; 48 h", "value": "did not induce motor neuron death"}, {"measurement": "induction of motor neuron death", "setting": "motor neurons; 48 h, listed as nitro-FGF-1", "value": "do not exert any apoptotic effect"}]}
{"molecule": "COC(=O)[C@@H](N)CCCNC(=N)N[N+](=O)[O-]", "note": "[L-NAME]", "values": [{"measurement": "effect on motor neuron loss induced by peroxynitrite-treated NGF", "setting": "motor neurons; L-NAME 1 mM, NGF-ONOO^− 100 ng/mL, 48 h", "value": "prevented"}]}
{"molecule": "Oc1nc(O)c2nc(O)[nH]c2n1", "note": "[urate]", "values": [{"measurement": "effect on motor neuron loss induced by peroxynitrite-treated NGF", "setting": "motor neurons; urate 100 nM added to culture, NGF-ONOO^− 100 ng/mL, 48 h", "value": "did not prevent motor neuron loss"}, {"measurement": "effect on apoptotic activity of peroxynitrite-treated NGF", "setting": "motor neurons; urate 200 μM present during peroxynitrite (1 mM) treatment of NGF, NGF 100 ng/mL, 48 h", "value": "abolished the apoptotic effect"}, {"measurement": "effect on tyrosine nitration and oligomerization of NGF", "setting": "NGF", "value": "prevented tyrosine nitration and oligomerization of NGF in a dose dependent manner"}]}
{"molecule": "COC(=O)CC[C@H](NC(=O)[C@H](CC(=O)OC)NC(=O)OCc1ccccc1)C(=O)N[C@H](C(=O)N[C@@H](CC(=O)OC)C(=O)CF)C(C)C", "note": "[DEVD-fmk]", "values": [{"measurement": "effect on motor neuron loss induced by peroxynitrite-treated NGF", "setting": "motor neurons; DEVD-fmk 10 μM added every 24 hours, NGF-ONOO^− 100 ng/mL, 48 h", "value": "blocked"}]}
{"molecule": "B1", "values": [{"measurement": "effect on motor neuron survival", "setting": "motor neurons; [2]", "value": "did not affect motor neuron survival"}, {"measurement": "concentration significantly inducing motor neuron loss", "setting": "motor neurons; in the presence of nitric oxide <50 nM from DETA-NONOate (10 μM), 48 h", "value": "higher than 10 ng/mL"}]}
{"molecule": "B2", "values": [{"measurement": "motor neuron loss", "setting": "motor neurons; in the absence of nitric oxide, 48 h", "value": 32, "unit": "%"}, {"measurement": "neurite growth compared to NGF", "setting": "[1]", "value": "increased neurite growth"}]}
{"molecule": "B3", "values": [{"measurement": "effect on motor neuron survival", "setting": "motor neurons; [2]", "value": "not sensitive"}]}
